Measured values: ChEMBL document CHEMBL4219077, “Methyllucidone inhibits STAT3 activity by regulating the expression of the protein tyrosine phosphatase MEG2 in DU145 prostate carcinoma cells” (Bioorg Med Chem Lett, 2018)
Calls of active or inactive are those of the source. The calls are words filed in the database; no cut-off is given here.

Key:
[1] = system: DU-145; experiment: Cell cycle arrest in human DU145 cells assessed as accumulation at S phase at 10 uM after 48 hrs by FACS analysis (reference value: 7.7%); format: functional
[2] = target: T1, PTPN9/STAT3 (Homo sapiens) (UniProt P40763+P43378); experiment: Modulation of MEG2 in human DU145 cells assessed as inhibition of STAT3 activation by measuring down regulation of Bcl2 level at 10 uM after 24 hrs by Western blot method; format: cell-based
T1 sequence (P40763 2-770 limits assumed): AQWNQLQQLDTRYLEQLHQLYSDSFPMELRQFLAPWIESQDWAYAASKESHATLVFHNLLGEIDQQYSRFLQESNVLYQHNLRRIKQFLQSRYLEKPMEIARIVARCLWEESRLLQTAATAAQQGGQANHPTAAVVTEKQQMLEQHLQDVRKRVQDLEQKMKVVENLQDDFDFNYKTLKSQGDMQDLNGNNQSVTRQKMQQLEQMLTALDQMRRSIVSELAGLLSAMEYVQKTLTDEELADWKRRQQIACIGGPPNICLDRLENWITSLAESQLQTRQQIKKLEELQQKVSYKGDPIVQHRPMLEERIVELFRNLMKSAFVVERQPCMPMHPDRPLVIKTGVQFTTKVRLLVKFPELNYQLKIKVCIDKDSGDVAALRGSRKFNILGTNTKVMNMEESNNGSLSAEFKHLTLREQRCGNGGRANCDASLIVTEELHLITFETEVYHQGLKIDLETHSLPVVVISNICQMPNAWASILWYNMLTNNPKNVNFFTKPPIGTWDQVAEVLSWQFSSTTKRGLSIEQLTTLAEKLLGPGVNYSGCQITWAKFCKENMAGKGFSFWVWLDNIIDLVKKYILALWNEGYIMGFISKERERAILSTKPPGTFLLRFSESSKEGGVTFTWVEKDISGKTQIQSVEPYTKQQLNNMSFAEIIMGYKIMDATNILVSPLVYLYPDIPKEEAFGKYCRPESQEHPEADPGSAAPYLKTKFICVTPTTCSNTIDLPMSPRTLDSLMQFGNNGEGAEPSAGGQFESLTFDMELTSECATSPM
T1 sequence (P43378 whole entry partner): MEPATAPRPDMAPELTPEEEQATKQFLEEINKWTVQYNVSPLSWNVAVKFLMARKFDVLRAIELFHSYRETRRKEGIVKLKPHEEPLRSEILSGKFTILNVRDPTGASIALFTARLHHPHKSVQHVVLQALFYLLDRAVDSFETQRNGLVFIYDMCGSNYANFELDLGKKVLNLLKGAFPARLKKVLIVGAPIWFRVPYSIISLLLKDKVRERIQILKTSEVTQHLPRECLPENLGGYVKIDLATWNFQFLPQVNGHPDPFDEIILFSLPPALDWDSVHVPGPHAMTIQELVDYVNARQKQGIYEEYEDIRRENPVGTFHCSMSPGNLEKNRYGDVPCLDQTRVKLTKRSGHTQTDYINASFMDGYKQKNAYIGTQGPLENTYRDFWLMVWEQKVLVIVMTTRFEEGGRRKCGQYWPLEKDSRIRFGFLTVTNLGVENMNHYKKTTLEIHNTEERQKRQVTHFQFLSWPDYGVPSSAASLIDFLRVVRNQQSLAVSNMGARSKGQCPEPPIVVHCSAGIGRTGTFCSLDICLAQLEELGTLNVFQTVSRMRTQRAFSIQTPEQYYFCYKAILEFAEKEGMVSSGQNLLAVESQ

[3] = target: Janus Kinase (JAK) (Homo sapiens) (UniProt P52333+P23458+O60674+P29597); experiment: Inhibition of JAK phosphorylation (unknown origin); format: protein assay
[4] = target: Signal transducer and activator of transcription 3 (Homo sapiens) (UniProt P40763); experiment: Inhibition of STAT3 phosphorylation at Tyr-705 residue in human DU145 cells harboring MEG2 siRNA at 10 uM after 12 hrs by Western blot method; format: cell-based
Signal transducer and activator of transcription 3 (Homo sapiens), sequence (P40763 whole entry): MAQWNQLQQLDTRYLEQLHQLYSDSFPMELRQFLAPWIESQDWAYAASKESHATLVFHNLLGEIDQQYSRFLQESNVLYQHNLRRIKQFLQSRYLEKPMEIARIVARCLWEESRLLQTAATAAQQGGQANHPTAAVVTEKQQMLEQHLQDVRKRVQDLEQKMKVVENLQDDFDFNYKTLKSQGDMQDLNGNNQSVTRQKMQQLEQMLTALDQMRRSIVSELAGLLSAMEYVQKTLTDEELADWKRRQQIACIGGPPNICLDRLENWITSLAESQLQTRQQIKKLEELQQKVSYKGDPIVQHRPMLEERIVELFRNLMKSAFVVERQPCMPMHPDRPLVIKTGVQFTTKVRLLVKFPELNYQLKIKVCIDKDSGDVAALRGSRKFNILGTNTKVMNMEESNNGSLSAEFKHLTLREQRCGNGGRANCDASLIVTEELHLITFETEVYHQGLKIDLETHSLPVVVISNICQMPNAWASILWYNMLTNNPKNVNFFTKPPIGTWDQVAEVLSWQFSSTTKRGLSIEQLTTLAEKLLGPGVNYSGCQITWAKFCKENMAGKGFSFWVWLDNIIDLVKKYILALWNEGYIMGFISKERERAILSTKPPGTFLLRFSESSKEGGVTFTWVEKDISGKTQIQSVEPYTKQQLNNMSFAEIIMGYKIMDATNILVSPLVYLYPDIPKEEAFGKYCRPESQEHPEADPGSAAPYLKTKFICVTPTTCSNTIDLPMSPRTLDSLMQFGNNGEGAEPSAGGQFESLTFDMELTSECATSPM

[5] = target: T1, PTPN9/STAT3 (Homo sapiens); experiment: Modulation of MEG2 in human DU145 cells assessed as inhibition of STAT3 activation by measuring down regulation of Cyclin D1 level at 10 uM after 24 hrs by Western blot method; format: cell-based
[6] = system: DU-145; experiment: Cell cycle arrest in human DU145 cells assessed as apoptotic cells at 10 uM after 12 hrs by FACS analysis (reference value: 8.1%); format: functional
[7] = system: DU-145; experiment: Cell cycle arrest in human DU145 cells assessed as accumulation at S phase at 10 uM after 12 hrs by FACS analysis (reference value: 7.7%); format: functional
[8] = target: T2, Signal transducer and activator of transcription 5A (Homo sapiens) (UniProt P42229); experiment: Inhibition of STAT5 phosphorylation in human DU145 cells after 24 hrs by Western blot method; format: cell-based
T2 sequence (whole entry): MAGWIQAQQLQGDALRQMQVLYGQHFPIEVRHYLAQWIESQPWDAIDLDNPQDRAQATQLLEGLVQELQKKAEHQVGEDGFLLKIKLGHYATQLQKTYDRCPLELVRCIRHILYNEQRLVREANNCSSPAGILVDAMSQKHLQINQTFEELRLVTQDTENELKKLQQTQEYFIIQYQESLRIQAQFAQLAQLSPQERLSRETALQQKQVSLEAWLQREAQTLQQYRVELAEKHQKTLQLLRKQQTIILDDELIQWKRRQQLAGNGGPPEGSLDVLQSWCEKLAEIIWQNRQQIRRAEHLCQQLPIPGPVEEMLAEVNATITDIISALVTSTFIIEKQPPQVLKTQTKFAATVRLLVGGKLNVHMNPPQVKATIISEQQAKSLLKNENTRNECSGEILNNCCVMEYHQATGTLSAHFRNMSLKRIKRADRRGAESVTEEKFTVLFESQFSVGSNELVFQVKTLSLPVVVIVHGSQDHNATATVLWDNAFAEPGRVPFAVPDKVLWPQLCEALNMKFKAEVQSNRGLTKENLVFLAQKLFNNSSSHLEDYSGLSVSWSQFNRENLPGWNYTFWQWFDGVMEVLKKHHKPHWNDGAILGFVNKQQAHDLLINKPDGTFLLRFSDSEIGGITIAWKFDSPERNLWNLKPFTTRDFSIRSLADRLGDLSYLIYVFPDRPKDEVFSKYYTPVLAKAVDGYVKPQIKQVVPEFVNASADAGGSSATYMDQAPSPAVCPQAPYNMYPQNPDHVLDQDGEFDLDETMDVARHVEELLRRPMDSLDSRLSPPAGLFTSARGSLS

[9] = target: T1, PTPN9/STAT3 (Homo sapiens); experiment: Modulation of MEG2 in human HCT116 cells harboring pSTAT3 (unknown origin)-TA-Luc assessed as inhibition of STAT3 transcriptional activity after 24 hrs by luciferase reporter gene assay; format: cell-based
[10] = system: DU-145; experiment: Cell cycle arrest in human DU145 cells assessed as accumulation at G0/G1 phase at 10 uM after 48 hrs by FACS analysis (reference value: 41.1%); format: functional
[11] = target: T1, PTPN9/STAT3 (Homo sapiens); experiment: Modulation of MEG2 in human DU145 cells assessed as inhibition of STAT3 activation by measuring down regulation of survivin level at 10 uM after 24 hrs by Western blot method; format: cell-based
[12] = system: DU-145; experiment: Cell cycle arrest in human DU145 cells assessed as apoptotic cells at 10 uM after 48 hrs by FACS analysis (reference value: 8.1%); format: functional
[13] = target: Proto-oncogene tyrosine-protein kinase Src (Homo sapiens) (UniProt P12931); experiment: Inhibition of SRC phosphorylation (unknown origin)
Proto-oncogene tyrosine-protein kinase Src (Homo sapiens), sequence (P12931 2-536 limits assumed): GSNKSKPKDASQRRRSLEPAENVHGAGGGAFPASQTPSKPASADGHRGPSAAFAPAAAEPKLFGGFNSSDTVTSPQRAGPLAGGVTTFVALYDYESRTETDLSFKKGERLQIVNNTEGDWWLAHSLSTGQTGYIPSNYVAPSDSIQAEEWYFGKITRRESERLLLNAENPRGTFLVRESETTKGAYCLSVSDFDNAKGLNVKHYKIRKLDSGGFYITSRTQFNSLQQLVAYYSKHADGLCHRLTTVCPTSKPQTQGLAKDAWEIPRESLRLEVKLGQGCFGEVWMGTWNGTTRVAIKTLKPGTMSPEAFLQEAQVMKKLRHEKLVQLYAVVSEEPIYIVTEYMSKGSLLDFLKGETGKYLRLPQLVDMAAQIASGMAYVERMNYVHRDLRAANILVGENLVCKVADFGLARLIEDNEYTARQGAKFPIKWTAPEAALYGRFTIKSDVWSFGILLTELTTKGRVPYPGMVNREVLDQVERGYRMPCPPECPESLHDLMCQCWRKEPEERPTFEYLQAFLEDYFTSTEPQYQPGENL

[14] = system: PC-3; experiment: Antiproliferative activity against human PC3 cells by WST1 assay; format: functional, cell-based
[15] = system: DU-145; experiment: Cell cycle arrest in human DU145 cells assessed as accumulation at G2/M phase at 10 uM after 12 hrs by FACS analysis (reference value: 24%); format: functional
[16] = system: DU-145; experiment: Cell cycle arrest in human DU145 cells assessed as accumulation at G2/M phase at 10 uM after 48 hrs by FACS analysis (reference value: 24%); format: functional
[17] = target: T1, PTPN9/STAT3 (Homo sapiens); experiment: Modulation of MEG2 in human DU145 cells assessed as inhibition of STAT3 activation by measuring down regulation of Mcl1 level at 10 uM after 24 hrs by Western blot method; format: cell-based
[18] = system: DU-145; experiment: Antiproliferative activity against human DU145 cells after 48 hrs by WST1 assay; format: functional; conditions: DU-145, 48 h
[19] = system: DU-145; experiment: Cell cycle arrest in human DU145 cells assessed as accumulation at G2/M phase at 10 uM after 24 hrs by FACS analysis (reference value: 24%); format: functional
[20] = target: Protein farnesyltransferase (Homo sapiens, UniProt P49354+P49356); experiment: Inhibition of FPTase (unknown origin); format: protein-complex assay
[21] = target: T3, Signal transducer and activator of transcription 1-alpha/beta (Homo sapiens) (UniProt P42224); experiment: Inhibition of STAT1 phosphorylation in human DU145 cells after 24 hrs by Western blot method; format: cell-based
T3 sequence (whole entry): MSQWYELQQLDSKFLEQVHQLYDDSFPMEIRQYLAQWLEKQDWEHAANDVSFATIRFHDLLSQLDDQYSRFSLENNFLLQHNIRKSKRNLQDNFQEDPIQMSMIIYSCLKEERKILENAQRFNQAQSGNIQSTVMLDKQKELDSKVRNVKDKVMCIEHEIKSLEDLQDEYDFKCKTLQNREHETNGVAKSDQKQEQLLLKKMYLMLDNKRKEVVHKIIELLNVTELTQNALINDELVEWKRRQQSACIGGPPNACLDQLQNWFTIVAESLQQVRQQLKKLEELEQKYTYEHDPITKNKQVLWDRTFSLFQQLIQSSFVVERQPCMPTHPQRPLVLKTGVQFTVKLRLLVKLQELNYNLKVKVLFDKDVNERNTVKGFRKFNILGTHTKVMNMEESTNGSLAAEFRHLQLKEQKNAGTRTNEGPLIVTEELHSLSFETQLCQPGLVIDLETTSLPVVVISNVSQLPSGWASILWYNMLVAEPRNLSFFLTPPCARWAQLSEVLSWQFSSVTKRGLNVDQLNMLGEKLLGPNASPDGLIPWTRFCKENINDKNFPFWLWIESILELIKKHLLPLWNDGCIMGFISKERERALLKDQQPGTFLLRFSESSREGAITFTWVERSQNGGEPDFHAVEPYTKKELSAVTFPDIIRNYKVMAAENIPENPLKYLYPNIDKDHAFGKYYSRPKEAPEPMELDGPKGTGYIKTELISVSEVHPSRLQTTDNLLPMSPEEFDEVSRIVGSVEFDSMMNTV

[22] = target: Signal transducer and activator of transcription 3 (Homo sapiens) (UniProt P40763); experiment: Inhibition of STAT3 phosphorylation at Tyr-705 residue in human DU145 cells harboring SHP2 siRNA at 10 uM after 12 hrs by Western blot method; format: cell-based
[23] = system: DU-145; experiment: Cell cycle arrest in human DU145 cells assessed as accumulation at S phase at 10 uM after 24 hrs by FACS analysis (reference value: 7.7%); format: functional
[24] = target: T1, PTPN9/STAT3 (Homo sapiens); experiment: Modulation of MEG2 in human DU145 cells assessed as inhibition of STAT3 phosphorylation at Tyr-705 residue at 10 uM after 24 hrs in presence of phosphatase inhibitor Na3VO4 by Western blot method; format: cell-based
[25] = system: DU-145; experiment: Increase in cleaved caspase-3 level in human DU145 cells up to 10 uM after 24 hrs by Western blot method; format: functional, cell-based
[26] = target: T1, PTPN9/STAT3 (Homo sapiens); experiment: Modulation of MEG2 in human LNCAP cells assessed as inhibition of IL-6-stimulated STAT3 phosphorylation at 10 uM pretreated for 12 hrs followed by IL-6 stimulation for 30 mins by Western blot method; format: cell-based
[27] = system: DU-145; experiment: Effect on total STAT3 protein expression in human DU145 cells up to 20 uM after 24 hrs by Western blot method; format: ADME, cell-based; conditions: du-145, 24 h
[28] = system: DU-145; experiment: Cell cycle arrest in human DU145 cells assessed as apoptotic cells at 10 uM after 24 hrs by FACS analysis (reference value: 8.1%); format: functional
[29] = system: DU-145; experiment: Increase in MEG2 protein expression in human DU145 cells at 10 uM by Western blot method; format: functional, cell-based; conditions: TDE = time-dependent effect
[30] = target: T1, PTPN9/STAT3 (Homo sapiens); experiment: Modulation of MEG2 in human DU145 cells assessed as inhibition of STAT3 phosphorylation at Tyr-705 residue at 20 uM after 24 hrs by Western blot method; format: cell-based
[31] = system: DU-145; experiment: Cell cycle arrest in human DU145 cells assessed as accumulation at G0/G1 phase at 10 uM after 24 hrs by FACS analysis (reference value: 41.1%); format: functional
[32] = system: DU-145; experiment: Induction of apoptosis in human DU145 cells assessed as decrease in procaspase-3 level up to 10 uM by Western blot method; format: functional, cell-based
[33] = target: T1, PTPN9/STAT3 (Homo sapiens); experiment: Modulation of MEG2 in human DU145 cells assessed as inhibition of STAT3 activation by measuring down regulation of Cyclin A level at 10 uM after 24 hrs by Western blot method; format: cell-based
[34] = system: DU-145; experiment: Cell cycle arrest in human DU145 cells assessed as accumulation at G0/G1 phase at 10 uM after 12 hrs by FACS analysis (reference value: 41.1%); format: functional
[35] = system: LNCaP; experiment: Antiproliferative activity against human LNCAP cells by WST1 assay; format: functional, cell-based

## COC1=CC(=O)/C(=C(\C=C\c2ccccc2)OC)C1=O
[1]
  Activity: 5.6%
[2]
  inhibition: Active
[3]
  inhibition: inactive
[4]
  inhibition: inactive
[5]
  inhibition: Active
[6]
  Activity: 4.5%
[7]
  Activity: 7.8%
[8]
  inhibition: inactive
[9]
  inhibition: Dose-dependent effect
[10]
  Activity: 36.7%
[11]
  inhibition: Active
[12]
  Activity: 20.8%
[13]
  inhibition: inactive
[14]
  Activity: inactive
[15]
  Activity: 34%
[16]
  Activity: 31.6%
[17]
  inhibition: Active
[18]
  GI50: 15 µM
[19]
  Activity: 23.6%
[20]
  IC50: > 40 µM
[21]
  inhibition: inactive
[22]
  inhibition: Active
[23]
  Activity: 4.1%
[24]
  inhibition: inactive
[25]
  Activity: inactive
[26]
  inhibition: Active
[27]
  Activity: Non-Toxic
[28]
  Activity: 8.5%
[29]
  Activity: Tde
[30]
  inhibition: > 90%
[31]
  Activity: 50.3%
[32]
  Activity: Active
[33]
  inhibition: Active
[34]
  Activity: 43.5%
[35]
  Activity: inactive
